Source: EPA's ToxRefDB 2

Columns and labels:
[1] = test system: rat; conditions: Subchronic oral toxicity in rodents, fischer, Feed, dose end: 14 week, group: systemic
[2] = test system: mouse; conditions: Subchronic oral toxicity in rodents, b6c3f1, Feed, dose end: 14 week, group: systemic
[3] = test system: mouse; conditions: Prenatal developmental toxicity study, cd1, Oral, Water, dose end: 15 GD
[4] = test system: dog; conditions: Sub-acute repeat dose toxicity; beagle; Injection; Intravenous; dose end: 4 week; group: systemic; systemic / clinical chemistry / alanine aminotransferase (alt/sgpt) / alanine aminotransferase (alt/sgpt) + systemic / clinical chemistry / …
[5] = test system: rat; conditions: Subchronic oral toxicity in rodents, fischer, Gavage/Intubation, dose end: 14 week, group: systemic
[6] = test system: mouse; conditions: Prenatal developmental toxicity study, other, Injection, Intraperitoneal, dose end: 13 GD
[7] = test system: rat; conditions: Prenatal developmental toxicity study, sprague dawley, Oral, Feed, dose end: 15 GD
[8] = test system: mouse; conditions: Carcinogenicity, b6c3f1, Oral, Gavage/Intubation, dose end: 2 year, group: systemic
[9] = test system: mouse; conditions: Subchronic oral toxicity in rodents, b6c3f1, Gavage/Intubation, dose end: 14 week, group: systemic
[10] = test system: rabbit; conditions: Prenatal developmental toxicity study, other, Injection, Intravenous, dose end: 18 GD
[11] = test system: rat; conditions: Combined chronic toxicity/carcinogenicity; fischer; Oral; Gavage/Intubation; dose end: 2 year; group: systemic; systemic / in life observation / body weight / body weight gain
[12] = test system: rat; conditions: Subchronic oral toxicity in rodents, sprague dawley, Gavage/Intubation, dose end: 90 day, group: systemic, systemic / in life observation / body weight / body weight + systemic / in life observation / body weight / body weight gain
[13] = test system: rat; conditions: Prenatal developmental toxicity study, sprague dawley, Oral, Gavage/Intubation, dose end: 15 GD
[14] = test system: rat; conditions: Subchronic dermal toxicity, sprague dawley, Topical, dose end: 90 day, group: systemic, systemic / pathology microscopic / liver / hypertrophy
[15] = test system: rat; conditions: Subchronic oral toxicity in rodents, sprague dawley, Gavage/Intubation, dose end: 13 week, group: systemic, systemic / pathology microscopic / adrenal gland / congestion + systemic / pathology microscopic / brain / congestion + systemic / pathology…
[16] = test system: dog; conditions: Chronic toxicity, beagle, Oral, Feed, dose end: 52 week, group: systemic
[17] = test system: mouse; conditions: Carcinogenicity; cd1; Oral; Feed; dose end: 78 week; group: systemic; systemic / in life observation / body weight / body weight + systemic / in life observation / body weight / body weight gain
[18] = test system: rat; conditions: Subchronic oral toxicity in rodents, sprague dawley, Gavage/Intubation, dose end: 90 day, group: systemic
[19] = test system: rat; conditions: Subchronic oral toxicity in rodents, sprague-dawley, Gavage/Intubation, dose end: 90 day, group: systemic, systemic / in life observation / body weight / body weight gain + systemic / in life observation / clinical signs / exophthalamus + systemic…
[20] = test system: rat; conditions: Combined chronic toxicity/carcinogenicity, sprague dawley, Oral, Feed, dose end: 24 month, group: systemic
[21] = test system: rat; conditions: Combined chronic toxicity/carcinogenicity, sprague dawley, Oral, Feed, dose end: 104 week, group: systemic
[22] = test system: rabbit; conditions: Prenatal developmental toxicity study, new zealand white, Oral, Gavage/Intubation, dose end: 18 GD
[23] = test system: mouse; conditions: Carcinogenicity; cd1; Oral; Feed; dose end: 18 month; group: systemic; systemic / in life observation / body weight / body weight
[24] = systemic / hematology / mean corpuscular (cell) volume (mcv) / mean corpuscular (cell) volume (mcv) + systemic / hematology / mean …
[25] = systemic / hematology / neutrophils / neutrophils
[26] = systemic / in life observation / body weight / body weight + systemic / in life observation / body weight / body weight gain
[27] = systemic / in life observation / body weight / body weight + systemic / in life observation / body weight / body weight gain + systemic / …
[28] = group: developmental, systemic / in life observation / body weight / fetal weight
[29] = group: maternal, reproductive / reproductive performance / resorptions / resorptions + systemic / in life observation / body weight / body weight gain + …
[30] = systemic / hematology / mean corpuscular hemoglobin (mch) / mean corpuscular hemoglobin (mch)
[31] = group: developmental, developmental / developmental malformation / general / [other] + developmental / developmental malformation / limb / micromelia + …
[32] = group: developmental, developmental / developmental malformation / paw / digit / ectrodactyly
[33] = group: maternal, reproductive / reproductive performance / resorptions / resorptions + reproductive / offspring survival early / dead fetuses / dead fetuses
[34] = group: maternal, reproductive / offspring survival early / litter size / litter size + systemic / in life observation / body weight / body weight gain + …
[35] = group: maternal, systemic / in life observation / water consumption / water consumption
[36] = systemic / in life observation / body weight / body weight
[37] = systemic / in life observation / body weight / body weight + systemic / in life observation / clinical signs / hyperactivity
[38] = systemic / in life observation / mortality / mortality + systemic / pathology microscopic / liver / glycogen deposition + systemic / …
[39] = systemic / pathology microscopic / liver / glycogen deposition
[40] = group: developmental, developmental / developmental malformation / bone / [other] + developmental / developmental malformation / bone / supernumerary + …
[41] = group: maternal, reproductive / reproductive performance / aborted / aborted + systemic / in life observation / body weight / body weight + systemic / in …
[42] = group: developmental, developmental / developmental malformation / bone / [other] + systemic / in life observation / body weight / fetal weight
[43] = group: maternal, systemic / in life observation / body weight / body weight gain + systemic / in life observation / food consumption / food consumption
[44] = group: maternal, systemic / in life observation / body weight / body weight gain + systemic / in life observation / food consumption / food consumption + …
[45] = systemic / in life observation / clinical signs / feces, discoloration
[46] = systemic / organ weight / adrenal gland / absolute + systemic / organ weight / adrenal gland / relative to body weight + systemic / organ …
[47] = systemic / in life observation / body weight / body weight + systemic / organ weight / liver / absolute + systemic / organ weight / liver / …
[48] = systemic / clinical chemistry / aspartate aminotransferase (ast/sgot) / aspartate aminotransferase (ast/sgot)
[49] = systemic / in life observation / mortality / mortality + systemic / pathology gross / mammary gland / cyst + systemic / pathology gross / …
[50] = group: developmental, developmental / developmental malformation / bone / supernumerary
[51] = group: developmental, developmental / developmental malformation / bone / supernumerary + developmental / developmental malformation / bone / short supernumerary…

## Cn1c(=O)c2[nH]cnc2n(C)c1=O [Theophylline]
[1]; [24]
  LOAEL: 125 mg/kg/day
  NOAEL: 75 mg/kg/day
[1]; [25]
  LEL: 75 mg/kg/day
  NEL: < 75 mg/kg/day
[2]; [26]
  LOAEL: 175 mg/kg/day
  NOAEL: < 175 mg/kg/day
[2]; [27]
  LEL: 175 mg/kg/day
  NEL: < 175 mg/kg/day
[3]; [28]
  LEL: 372 mg/kg/day
  LOAEL: > 396 mg/kg/day
  NEL: 282 mg/kg/day
  NOAEL: ≥ 396 mg/kg/day
[3]; [29]
  LEL: 372 mg/kg/day
  LOAEL: > 396 mg/kg/day
  NEL: 282 mg/kg/day
  NOAEL: ≥ 396 mg/kg/day
[4]
  LEL: 35 mg/kg/day
  LOAEL: > 70 mg/kg/day
  NEL: 20 mg/kg/day
  NOAEL: ≥ 70 mg/kg/day
[5]; [30]
  LEL: 37.5 mg/kg/day
  NEL: < 37.5 mg/kg/day
[5]; systemic / pathology microscopic / artery (general) / polyarteritis + systemic / hematology / mean corpuscular (cell) volume (mcv) / mean …
  LOAEL: 150 mg/kg/day
[5]; systemic / pathology microscopic / artery (general) / polyarteritis + systemic / in life observation / body weight / body weight gain + …
  NOAEL: 75 mg/kg/day
[6]; [31]
  LOAEL: > 200 mg/kg/day
  NOAEL: ≥ 200 mg/kg/day
[6]; [32]
  LEL: 100 mg/kg/day
  NEL: < 100 mg/kg/day
[6]; group: maternal, reproductive / reproductive performance / resorptions / resorptions
  NEL: 150 mg/kg/day
[6]; [33]
  LEL: 200 mg/kg/day
  LOAEL: > 200 mg/kg/day
  NOAEL: ≥ 200 mg/kg/day
[7]; [28]
  LEL: 218 mg/kg/day
  LOAEL: > 259 mg/kg/day
  NEL: 124 mg/kg/day
  NOAEL: ≥ 259 mg/kg/day
[7]; [34]
  LOAEL: > 259 mg/kg/day
  NOAEL: ≥ 259 mg/kg/day
[7]; [35]
  LEL: 124 mg/kg/day
  NEL: < 124 mg/kg/day
[8]; [36]
  LEL: 25 mg/kg/day
  LOAEL: 25 mg/kg/day
[8]; [37]
  NEL: 7.5 mg/kg/day
  NOAEL: 7.5 mg/kg/day
[9]; [38]
  LOAEL: > 300 mg/kg/day
  NOAEL: ≥ 300 mg/kg/day
[9]; [39]
  LEL: 75 mg/kg/day
  NEL: < 75 mg/kg/day
[10]; group: developmental, developmental / developmental malformation / bone / [other]
  LEL: 30 mg/kg/day
[10]; [40]
  LOAEL: > 60 mg/kg/day
  NEL: 15 mg/kg/day
  NOAEL: ≥ 60 mg/kg/day
[10]; [41]
  LOAEL: > 60 mg/kg/day
  NEL: 15 mg/kg/day
  NOAEL: ≥ 60 mg/kg/day
[10]; group: maternal, systemic / urinalysis / volume / volume
  LEL: 30 mg/kg/day
[11]
  LEL: 7.5 mg/kg/day
  LOAEL: 7.5 mg/kg/day
  NEL: < 7.5 mg/kg/day
  NOAEL: < 7.5 mg/kg/day

## CC(=O)N(CCN(C(C)=O)C(C)=O)C(C)=O [Tetraacetylethylenediamine]
[12]
  LEL: 25 mg/kg/day
  LOAEL: 25 mg/kg/day
  NEL: < 25 mg/kg/day
  NOAEL: < 25 mg/kg/day
[13]; [42]
  LEL: 1000 mg/kg/day
  LOAEL: 1000 mg/kg/day
  NEL: 200 mg/kg/day
  NOAEL: 200 mg/kg/day
[13]; [43]
  LEL: 200 mg/kg/day
  LOAEL: 200 mg/kg/day
[13]; [44]
  NEL: 40 mg/kg/day
  NOAEL: 40 mg/kg/day
[14]
  LEL: 2000 mg/kg/day
  LOAEL: > 2000 mg/kg/day
  NEL: 200 mg/kg/day
  NOAEL: ≥ 2000 mg/kg/day

## ClNc1nc(NCl)nc(NCl)n1 [Trichloromelamine]
[15]
  LEL: 150 mg/kg/day
  LOAEL: 150 mg/kg/day
  NEL: 30 mg/kg/day
  NOAEL: 30 mg/kg/day

## CC1(C)NC(=O)NC1=O [5,5-Dimethylhydantoin]
[16]; [45]
  LEL: 120 mg/kg/day
  NEL: < 120 mg/kg/day
[16]; [46]
  LOAEL: 1510 mg/kg/day
  NOAEL: 342 mg/kg/day
[17]
  LEL: 1000 mg/kg/day
  LOAEL: 1000 mg/kg/day
  NEL: 300 mg/kg/day
  NOAEL: 300 mg/kg/day
[18]; [47]
  LEL: 1020 mg/kg/day
  LOAEL: 1020 mg/kg/day
  NOAEL: 303 mg/kg/day
[18]; systemic / organ weight / kidney / absolute + systemic / organ weight / liver / absolute + systemic / organ weight / liver / relative to …
  NEL: 303 mg/kg/day
[19]
  LEL: 1050 mg/kg/day
  LOAEL: > 1050 mg/kg/day
  NEL: 100 mg/kg/day
  NOAEL: ≥ 1050 mg/kg/day
[20]; [48]
  LEL: 100 mg/kg/day
  NEL: < 100 mg/kg/day
[20]; [49]
  LOAEL: 1000 mg/kg/day
  NOAEL: 320 mg/kg/day
[21]; [26]
  NEL: 300 mg/kg/day
  NOAEL: 300 mg/kg/day
[21]; [27]
  LEL: 1000 mg/kg/day
  LOAEL: 1000 mg/kg/day
[22]; [50]
  LEL: 500 mg/kg/day
  LOAEL: 500 mg/kg/day
[22]; [51]
  NEL: 100 mg/kg/day
  NOAEL: 100 mg/kg/day
[22]; [43]
  LEL: 1000 mg/kg/day
  LOAEL: 1000 mg/kg/day
  NEL: 500 mg/kg/day
  NOAEL: 500 mg/kg/day
[23]
  LEL: 321 mg/kg/day
  LOAEL: > 1010 mg/kg/day
  NEL: 101 mg/kg/day
  NOAEL: ≥ 1010 mg/kg/day
